From the RepoRT retention time repository (doi:10.1021/acs.analchem.1c00972)

Assays:
[1] = RP, Waters ACQUITY UPLC BEH C18, 100 × 1 mm, 1.7 µm, 50 °C, 0.3 mL/min, estimated dead time 0.17 min; A: water + 10 mM ammonium bicarbonate; B: 10% water + 90% methanol + 10 mM ammonium bicarbonate; gradient (min/%B) 0/0 15/100 21/100 22/0 30/0; conditions: stereoisomer not certain
[2] = RP, Waters ACQUITY UPLC BEH C18, 100 × 1 mm, 1.7 µm, 50 °C, 0.3 mL/min, estimated dead time 0.17 min; A: water + 0.1% formic acid + 20 mM ammonium formate; B: methanol + 0.1% formic acid + 20 mM ammonium formate; gradient (min/%B) 0/0 15/100 21/100 22/0 30/0; conditions: stereoisomer not certain

| Compound | LC retention time [1] [min] | LC retention time [2] [min] |
| --- | --- | --- |
| Cn1cnc2c1c(=O)n(CCCC(=O)O)c(=O)n2C [1-(3-carboxypropyl)-3,7-dimethylxanthine] | 6.58 | 8.38 |
| CCCCCCCCCCS(=O)(=O)O [1-Decanesulfonic acid] | 14.7 | 15.1 |
| c1ccc2n[nH]nc2c1 [1H-Benzotriazole] | 6.66 | 7.88 |
| CC(=O)OC1C(C)OC(n2cc(F)c(N)nc2=O)C1OC(C)=O (stereo not given) [2',3'-Di-O-acetyl-5'-deoxy-5-fluorocytidine] | 9.61 | 9.43 |
| CCCCCCCCCCSCCOCCO [2(2(decylsulfanyl)ethoxy)ethanol] | 18.1 | 17.7 |
| CCCCCCCCSCCOCCO [2(2(octylsulfanyl)ethoxy)ethanol] | 16.9 | 16.5 |
| c1ccc2sc(N3CCOCC3)nc2c1 [2(4-morpholinyl)benzothiazole] | 13.2 | 12.7 |
| Nc1ccc(Cc2ccc(N)c(Cl)c2)cc1Cl [2,2'-dichloro-4,4'-methylenedianiline] | 14.3 | 13.9 |
| c1ccc2sc(SSc3nc4ccccc4s3)nc2c1 [2,2-Dibenzothiazoyl disulfide] | 13.9 | 17.2 |
| O=C(O)c1ccc(Cl)cc1Cl [2,4-Dichlorobenzoic acid] | 7.64 | 12.7 |
| O=C(O)COc1ccc(Cl)cc1Cl [2,4-Dichlorophenoxyacetic acid] | 10.6 | 12.9 |
| Cc1cc(C)c2ccccc2n1 [2,4-Dimethylchinolin] | 13.6 | 7.37 |
| O=[N+]([O-])c1ccc(O)c([N+](=O)[O-])c1 [2,4-Dinitrophenol] | 6.21 | 9.71 |
| Nc1c(Cl)cc(C(F)(F)F)cc1Cl [2,6-Dichloro-4-trifluoromethylaniline] | 15.9 | 16.2 |
| NC(=O)c1c(Cl)cccc1Cl [2,6-Dichlorobenzamide] | 7.59 | 7.57 |
| CC(C)(C)c1cccc(C(C)(C)C)c1O [2,6-di-tert-Butylphenol] | 16.6 | 16.2 |
| COCCOCCOCCO [2-(2-(2-Methoxyethoxy)ethoxy)ethanol] | 6.68 | 6.67 |
| O=Cc1ccccc1Nc1ccccc1Cl [2-(2-(Chlorophenyl)amino)benzaldehyde] | 16 | 15.7 |
| CSc1nc2ccccc2s1 [2-(Methylthio)benzothiazole] | 14.3 | 14 |
| COc1cc(OC)nc(N)n1 [2-Amino-4,6-dimethoxypyrimidine] | 8.74 | 7.19 |
| CCCCOC(=O)COC(=O)c1ccccc1C(=O)OCCCC [2-Butoxy-oxoethylbutylphthalate] | 16.6 | 16.2 |
| Clc1nc2ccccc2s1 [2-Chlorobenzothiazole] | 13.8 | 13.5 |

| Compound | LC retention time [1] [min] | LC retention time [2] [min] |
| --- | --- | --- |
| Clc1ccccn1 [2-Chloropyridine] | 8.38 | 8.31 |
| CCCCCCOC(=O)c1ccccc1C(=O)OCC(CC)CCCC (stereo not given) [2-Ethylhexyl(hexyl)phthalate] | 19.4 | 18.9 |
| CCCCC(CC)COP(=O)(Oc1ccccc1)Oc1ccccc1 (stereo not given) [2-Ethylhexyldiphenyl phosphate] | 18.1 | 17.7 |
| NC(=O)N1c2ccccc2C=Cc2cc(O)ccc21 [2-Hydroxycarbamazepine] | 10.8 | 10.7 |
| Cc1cc(=O)[nH]c(C(C)C)n1 [2-Isopropyl-6-methyl-pyrimidin-4-ol] | 8.01 | 7.61 |
| CC(C)c1ccc2sc3ccccc3c(=O)c2c1 [2-Isopropylthioxanthone] | 17.5 | 17.2 |
| S=c1[nH]c2ccccc2s1 [2-Mercaptobenzothiazole] | 8.11 | 11 |
| Cc1nc2ccccc2s1 [2-Methylbenzothiazole] | 12.6 | 12.3 |
| c1ccc2sc(SN3CCOCC3)nc2c1 [2-Morpholinothiobenzothiazole] | 10 | 12.1 |
| CCCCCCCCn1sccc1=O [2-Octyl-4-isothiazolin-3-one] | 15.3 | 15 |
| Oc1cc(Cl)c(Cl)c(Cl)c1 [3,4,5-trichlorophenol] | 14.2 | 15.2 |
| Cc1cccc(Cl)c1NC(=O)N(C)C [3-(2-CHLORO-6-METHYLPHENYL)-1,1-DIMETHYLUREA] | 10.1 | 10 |
| CC(=O)OC1CC2(C)C3(CO3)C1OC1C=C(C)C(=O)C(O)C12CO (stereo not given) [3-Acetyl-Deoxynivalenol] | 9.74 | 9.62 |
| CN(C)C(=O)NC1CCCCC1 [3-Cyclohexyl-1,1-dimethylurea] | 11.1 | 10.9 |
| Oc1cc(-c2ccc(Cl)cc2)ccc1Cl [3-Hydroxy-4,4'-dichlorobiphenyl] | 16 | 15.9 |
| CNC(=O)Oc1cccc2c1OC(C)(C)C2O (stereo not given) [3-Hydroxycarbofuran] | 9.47 | 9.35 |
| CCCCNC(=O)OCC#CI [3-Iodopropynyl butylcarbamate] | 13.2 | 12.9 |
| CC(=O)Nc1ccc(N)cc1 [4'-Aminoacetanilide] | 4.75 | 8.1 |
| Nc1ccc(Cc2ccc(N)cc2)cc1 [4,4'-Methylenedianiline] | 10.7 | 5.44 |
| CC12CCC3C(CCC4C(O)C(=O)C=CC43C)C1CCC2=O (stereo not given) [4- Hydroxyandrostenedione] | 11.9 | 11.7 |
| CN(C)c1ccncc1 [4-(Dimethylamino)pyridine] | 7.04 | 4.07 |
| CN(C)S(=O)(=O)c1ccc(N)cc1 [4-Amino-N,N-dimethylbenzenesulfonamide] | 8.01 | 7.95 |

| Compound | LC retention time [1] [min] | LC retention time [2] [min] |
| --- | --- | --- |
| NC(=O)c1ccc(N)cc1 [4-Aminobenzamide] | 2.63 | 2.09 |
| Nc1ccc(Nc2ccccc2)cc1 [4-Aminodiphenylamine] | 11.5 | 8.71 |
| CC12CCC3C(CCC4=CC(=O)CCC43C)C1CCC2=O (stereo not given) [4-Androstene-3,17-dione] | 14.2 | 14 |
| COc1cc(Cl)c(OC)cc1N [4-Chloro-2,5-dimethoxyaniline] | 11.2 | 10.4 |
| Cc1c(C=O)c(=O)n(-c2ccccc2)n1C [4-Formyl-antipyrine] | 7.74 | 7.75 |
| Oc1c(Cl)cc(-c2ccc(Cl)cc2)cc1Cl [4-Hydroxy-3,4',5-trichlorobiphenyl] | 15.2 | 16.9 |
| O=C(O)Cc1ccccc1Nc1c(Cl)cc(O)cc1Cl [4-Hydroxy-Diclofenac] | 10.7 | 13.7 |
| CCC(=C(c1ccc(O)cc1)c1ccc(OCCN(C)C)cc1)c1ccccc1 [4-Hydroxytamoxifen] | 17 | 14.3 |
| Cc1ccc(C=C2C(=O)C3(C)CCC2C3(C)C)cc1 (stereo not given) [4-Methylbenzylidene camphor] | 17.4 | 17.1 |
| Oc1ccc(C(F)(F)F)cc1 [4-Trifluoromethylphenol] | 12.6 | 12.8 |
| CC(=O)Nc1cc(Cl)ccc1C [5'-CHLORO-2'-METHYLACETANILIDE] | 11.2 | 11 |
| CCc1cccc(C)c1N [6-Ethyl-2-toluidine] | 12.7 | 10.8 |
| CCNc1ccc2c(C)cc(=O)oc2c1 [7-(Ethylamino)-4-methylcoumarin] | 12.5 | 12.2 |
| CC(=O)OC1CCN2CC=C(COC(=O)C(O)(C(C)C)C(C)O)C12 (stereo not given) [7-Acetyllycopsamine] | 11.8 | 8.13 |
| Cc1cc(=O)oc2cc(N)ccc12 [7-Amino-4-methylcoumarin] | 9.4 | 9.29 |
| CCN(CC)c1ccc2c(C)cc(=O)oc2c1 [7-Diethylamino-4-methylcoumarin] | 14.7 | 14.4 |
| CN(Cc1nc2c(N)nc(N)nc2[nH]c1=O)c1ccc(C(=O)NC(CCC(=O)O)C(=O)O)cc1 (stereo not given) [7-Hydroxymethotrexat] | 6.65 | 8.94 |
| CC(CCC(=O)O)C1CCC2C3C(=O)CC4CC(O)CCC4(C)C3CCC12C (stereo not given) [7-Oxolithocholic acid] | 14.3 | 19.2 |
| NC(=O)N1c2ccccc2CC(O)c2ccccc21 (stereo not given) [10,11-Dihydro-10-hydroxycarbamazepine] | 10.9 | 10.7 |
| CC(=O)OC12COC1CC(O)C1(C)C(=O)C(O)C3=C(C)C(O)CC(O)(C(OC(=O)c4ccccc4)C21)C3(C)C (stereo not given) [10-Deacetylbaccatin III] | 12 | 11.7 |
| CC(=O)C1(O)CCC2C3CCC4=CC(=O)CCC4(C)C3CCC21C (stereo not drawn) [17alpha-Hydroxyprogesterone] | 14.8 | 14.5 |
